Measurements reported in ChEMBL document CHEMBL5137131, “Mechanisms of Biochanin A Alleviating PM2.5 Organic Extracts-Induced EMT of A549 Cells through the PI3K/Akt Pathway” (J Nat Prod, 2022).
Calls of active or inactive are those of the source. No cut-off for these calls is given here.

Columns and labels:
A549 [1] = test: Inhibition of PM2.5 induced PI3K upregulation in human A549 cells at 10 uM by Western blot analysis relative to control; assay type: functional
[2] = target: Serine/threonine-protein kinase AKT (Homo sapiens) (UniProt P31751+Q9Y243+P31749); test: Inhibition of PM2.5 induced Akt phosphorylation upregulation in human A549 cells at 10 uM by Western blot analysis relative to control; assay type: cell-based
Serine/threonine-protein kinase AKT (Homo sapiens), sequence (P31749 whole entry, looked up): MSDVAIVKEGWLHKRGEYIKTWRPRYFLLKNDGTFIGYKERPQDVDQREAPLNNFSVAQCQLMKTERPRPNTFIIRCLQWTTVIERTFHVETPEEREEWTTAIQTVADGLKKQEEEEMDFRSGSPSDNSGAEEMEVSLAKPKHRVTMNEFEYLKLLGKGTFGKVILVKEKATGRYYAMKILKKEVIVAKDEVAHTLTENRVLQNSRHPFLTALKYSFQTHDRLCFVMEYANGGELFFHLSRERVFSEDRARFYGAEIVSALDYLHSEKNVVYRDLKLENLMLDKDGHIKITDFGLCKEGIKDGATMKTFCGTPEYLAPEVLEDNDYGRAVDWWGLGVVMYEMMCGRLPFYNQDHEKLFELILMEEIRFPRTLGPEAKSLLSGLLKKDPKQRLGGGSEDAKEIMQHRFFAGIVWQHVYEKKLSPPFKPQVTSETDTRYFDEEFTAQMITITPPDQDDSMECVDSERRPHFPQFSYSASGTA
Serine/threonine-protein kinase AKT (Homo sapiens), sequence (P31751 whole entry, looked up): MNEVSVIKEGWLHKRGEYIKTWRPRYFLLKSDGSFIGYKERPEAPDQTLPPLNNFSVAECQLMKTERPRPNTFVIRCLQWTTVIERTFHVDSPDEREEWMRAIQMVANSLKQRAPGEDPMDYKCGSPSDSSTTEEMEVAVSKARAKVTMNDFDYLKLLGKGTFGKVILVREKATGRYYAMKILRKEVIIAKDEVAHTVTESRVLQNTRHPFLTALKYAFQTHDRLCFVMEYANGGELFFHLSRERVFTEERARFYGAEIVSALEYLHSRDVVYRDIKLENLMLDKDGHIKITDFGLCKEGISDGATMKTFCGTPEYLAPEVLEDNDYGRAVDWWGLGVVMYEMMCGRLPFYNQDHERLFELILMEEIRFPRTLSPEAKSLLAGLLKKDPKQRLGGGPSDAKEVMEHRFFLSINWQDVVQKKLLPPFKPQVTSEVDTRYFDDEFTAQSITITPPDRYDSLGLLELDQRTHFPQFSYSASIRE
Serine/threonine-protein kinase AKT (Homo sapiens), sequence (Q9Y243 whole entry, looked up): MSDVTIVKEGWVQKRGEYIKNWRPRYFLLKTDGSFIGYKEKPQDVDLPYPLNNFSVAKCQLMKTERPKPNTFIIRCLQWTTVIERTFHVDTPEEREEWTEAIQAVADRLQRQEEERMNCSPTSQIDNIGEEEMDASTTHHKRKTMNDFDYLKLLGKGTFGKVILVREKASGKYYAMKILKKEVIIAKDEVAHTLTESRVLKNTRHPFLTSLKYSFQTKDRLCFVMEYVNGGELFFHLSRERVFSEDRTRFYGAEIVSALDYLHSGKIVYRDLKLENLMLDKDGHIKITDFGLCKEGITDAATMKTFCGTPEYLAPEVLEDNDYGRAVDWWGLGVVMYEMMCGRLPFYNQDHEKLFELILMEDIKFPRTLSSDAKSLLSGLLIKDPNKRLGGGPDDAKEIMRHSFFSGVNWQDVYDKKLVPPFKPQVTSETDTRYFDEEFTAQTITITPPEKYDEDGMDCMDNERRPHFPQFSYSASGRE

A549 [3] = test: Downregulation of PM2.5 induced vimentin expression in human A549 cells at 10 uM by Western blot analysis; assay type: functional, cell-based
A549 [4] = test: Inhibition of PM2.5 induced PI3K expression in human A549 cells at 10 uM by qRT-PCR analysis; assay type: functional, cell-based
A549 [5] = test: Inhibition of PM2.5 induced E-cadherin downregulation in human A549 cells at 10 uM by Western blot analysis; assay type: functional, cell-based
A549 [6] = test: Downregulation of PM2.5 induced Slug expression in human A549 cells; assay type: functional, cell-based
A549 [7] = test: Inhibition of PM2.5 induced Akt phosphorylation in human A549 cells at 10 uM […]; assay type: functional, cell-based
A549 [8] = test: Downregulation of PM2.5 induced Snail expression in human A549 cells; assay type: functional, cell-based

With `O=c1cc(N2CCOCC2)oc2c(-c3ccccc3)cccc12` [LY-294002] the inhibition at 10 µM (A549 [1]) was 84.3%, the inhibition [2] was 15% and the Activity (A549 [3]) was “Active”. The inhibition (A549 [4]) was “Active”, the inhibition (A549 [5]) was “Active” and the Activity (A549 [6]) was “Active”. For the same molecule, the inhibition (A549 [7]) was “Active” and the Activity (A549 [8]) was “Active”.
